Our source for the IC50 values is US11352353B2, “Heterocyclic compound serving as FGFR4 inhibitor” (Hangzhou Innogate Pharma Co., Ltd., priority 2016, dated 2022).

Assay [1] addresses FGFR4 (Homo sapiens, UniProt P22455). The assay is described as follows: FGFR4 kinase activity inhibition (Caliper mobility shift assay). The assay is classed as biochemical. The following applies: FAM-labeled peptide and ATP, 28° C. 30-60 minutes, read-out: FGFR kinase inhibition (IC50, nM) FGFR4. On the procedure:
(§1) 1. FGFR1 and FGFR4 Kinase Activity Inhibition Experiments
(§2) The FGFR1, FGFR2, FGFR3 and FGFR4 protein kinase activities were determined using the Caliper mobility shift assay. The compound was dissolved in DMSO and diluted with kinase buffer, and 5 µL of a 5-fold final concentration of the compound (10% DMSO) was added to a 384-well plate. After adding 10 µL of 2.5-fold enzyme (FGFR1 and FGFR4, respectively) solution, incubate for 10 minutes at room temperature, and then add 10 µL of a (FAM-labeled peptide and ATP) solution. Incubate at 28° C. for 30-60 minutes and stop the reaction by adding 25 µL stop solution. Conversion rate data was read on a Caliper EZ Reader II (Caliper Life Sciences). The conversion rate was converted into inhibition rate data (% inhibition rate=(max−sample conversion rate)/(max−min)*100). Wherein max is the conversion of the DMSO control and min is the conversion of the enzyme-free control. Plot the curve with the compound concentration and inhibition rate on the horizontal and vertical coordinates, and fit the curve and calculate the IC50 using XLFit excel add-in version 4.3.1 software.

The test system of assay [2] is Huh7 tumor cells. As to the kind of experiment: Inhibition of Huh-7 tumor cell proliferation (CellTiter Glo). The following applies: Homo sapiens, 72 or 168 hours. The assay is classed as cell-based. On the procedure: 2. Compound Inhibition Test on Huh-7 Tumor Cell Proliferation
The Huh7 cell suspension was adjusted to 5×10e4/mL or 2×10e4/mL with DMEM+2 Mm Glutamine+10% FBS medium. A 100 μL cell suspension was added to each well in a 96-well cell culture plate at a final cell concentration of 5000 cells/well (72 hours) or 2000 cells/well (168 hours). The test compound was dissolved in DMSO as a 10 mM stock solution. Compounds at a final concentration of 200× were prepared using stock solutions and DMSO, and 3× serial dilutions were prepared and then diluted 20-fold with each medium. Finally, 10 μL of the corresponding 10-fold solution was added to each well of each cell, and each drug concentration was single-well. The final concentrations of each compound were 3000 nM, 1000 nM, 333.3 nM, 111.1 nM, 37.04 nM, 12.35 nM, 4.12 nM, 1.37 nM, and the final concentration of DMSO per well was 0.5%. Incubate for 72 or 168 hours in a 37° C., 5% CO2 incubator. After 72 or 168 hours of drug treatment, according to the CTG instructions, add 100 µL CellTiter Glo detection reagent per well, pre-melt and equilibrate to room temperature CTG solution, mix with a microplate shaker for 2 minutes, and leave at room temperature for 10 minutes. The chemiluminescence signal value was then measured using an EnSpire plate reader. Cell survival rate was calculated using formula: (Vsample−Vblank)/(Vvehicle control−Vblank)×100%. Vsample is the reading of the drug treatment group, Vvehicle control is the average value of the solvent control group, and Vblank is the average value of the blank control well. The S-type dose-survival curve was plotted and the IC50 values were calculated using the GraphPad Prism 5.0 software using a non-linear regression model.
(In general: In ATP-based viability assays light output follows the ATP content of the culture.)

Assay [3] addresses FGFR1 (Homo sapiens, UniProt P11362). As to the kind of experiment: FGFR1 kinase activity inhibition (Caliper mobility shift assay). The assay is classed as biochemical. As to conditions: FAM-labeled peptide and ATP, 28° C. 30-60 minutes, read-out: FGFR kinase inhibition (IC50, nM) FGFR1. On the procedure:
as §1, §2

FGFR4, sequence (P22455 22-802): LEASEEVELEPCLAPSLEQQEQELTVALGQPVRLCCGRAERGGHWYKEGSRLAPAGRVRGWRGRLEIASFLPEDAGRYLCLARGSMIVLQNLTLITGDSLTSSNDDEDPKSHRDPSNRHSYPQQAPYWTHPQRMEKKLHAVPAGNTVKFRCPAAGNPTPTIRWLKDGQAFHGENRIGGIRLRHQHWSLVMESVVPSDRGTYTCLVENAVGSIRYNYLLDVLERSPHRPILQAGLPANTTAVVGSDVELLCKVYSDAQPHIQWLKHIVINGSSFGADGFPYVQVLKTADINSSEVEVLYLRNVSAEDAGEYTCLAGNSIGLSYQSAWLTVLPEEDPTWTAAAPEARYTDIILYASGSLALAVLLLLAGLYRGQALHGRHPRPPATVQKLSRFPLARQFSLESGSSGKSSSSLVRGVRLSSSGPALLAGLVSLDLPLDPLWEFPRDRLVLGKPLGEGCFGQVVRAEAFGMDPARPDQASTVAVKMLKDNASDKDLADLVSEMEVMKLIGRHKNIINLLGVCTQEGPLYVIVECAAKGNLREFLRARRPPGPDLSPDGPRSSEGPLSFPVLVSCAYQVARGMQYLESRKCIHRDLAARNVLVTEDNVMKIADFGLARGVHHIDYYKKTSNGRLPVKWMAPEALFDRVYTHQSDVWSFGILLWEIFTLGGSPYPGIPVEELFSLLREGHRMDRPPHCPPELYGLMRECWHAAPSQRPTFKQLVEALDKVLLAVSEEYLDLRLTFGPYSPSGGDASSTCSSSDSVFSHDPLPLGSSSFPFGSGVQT
FGFR1, sequence (P11362 22-822): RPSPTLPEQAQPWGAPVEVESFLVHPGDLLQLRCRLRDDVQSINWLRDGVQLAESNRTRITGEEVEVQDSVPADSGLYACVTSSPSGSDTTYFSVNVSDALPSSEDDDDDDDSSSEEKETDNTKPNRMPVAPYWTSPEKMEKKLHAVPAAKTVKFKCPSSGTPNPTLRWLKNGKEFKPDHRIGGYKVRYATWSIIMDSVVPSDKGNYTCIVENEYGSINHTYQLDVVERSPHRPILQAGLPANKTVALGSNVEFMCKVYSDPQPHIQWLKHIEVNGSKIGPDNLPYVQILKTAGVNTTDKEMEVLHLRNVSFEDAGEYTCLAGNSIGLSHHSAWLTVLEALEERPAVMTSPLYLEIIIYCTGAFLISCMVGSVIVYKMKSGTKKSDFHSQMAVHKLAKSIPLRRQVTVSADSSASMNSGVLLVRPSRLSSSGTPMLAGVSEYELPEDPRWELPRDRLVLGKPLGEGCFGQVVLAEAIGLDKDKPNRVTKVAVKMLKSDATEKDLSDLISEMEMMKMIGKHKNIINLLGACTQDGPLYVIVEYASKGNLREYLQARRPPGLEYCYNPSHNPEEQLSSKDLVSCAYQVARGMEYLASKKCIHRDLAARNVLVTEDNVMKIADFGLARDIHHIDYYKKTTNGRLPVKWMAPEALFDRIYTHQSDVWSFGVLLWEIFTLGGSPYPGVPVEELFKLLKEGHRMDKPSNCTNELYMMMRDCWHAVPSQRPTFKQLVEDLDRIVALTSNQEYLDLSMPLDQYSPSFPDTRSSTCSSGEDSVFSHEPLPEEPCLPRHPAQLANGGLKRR

One may read the IC50 as the concentration that gives 50% inhibition. `COCCNc1cc(NC(=O)N2CCCc3cc(CN4CCN(C5CN(C)C5)CC4=O)c(C=O)nc32)ncc1C#N` [Compound 11]: the IC50 in assay [1] was less than 5 nM.
Turning to `N#Cc1cnc(NC(=O)N2CCCc3cc(CN4CC5CCCN5CC4=O)c(C=O)nc32)cc1OC1CC1` (stereo not drawn) [Compound 6], the IC50 in assay [2] was less than 500 nM.
As to `CN1CCN(Cc2cc3c(nc2C=O)N(C(=O)Nc2cc(NC4CC4)c(C#N)cn2)CCC3)C(=O)C1` [Compound 12], the IC50 in assay [1] is less than 5 nM.
On the same count and under the same terms, the same measure for `COCCNc1cc(NC(=O)N2CCCc3cc(CN4CCN5CCCC5C4=O)c(C=O)nc32)ncc1C#N` (stereo not drawn) [Compound 10]: less than 5 nM.
As to `N#Cc1cnc(NC(=O)N2CCCc3cc(CN4CCN(C5CC5)CC4=O)c(C=O)nc32)cc1OC1CC1` [Compound 4], the results for the IC50 in assay [2] and in assay [1] were less than 500 nM and less than 20 nM, respectively.
On to `CN1CCCN(Cc2cc3c(nc2C=O)N(C(=O)Nc2cc(OC4CC4)c(C#N)cn2)CCC3)C(=O)C1` [Compound 5], for which the IC50 in assay [2] was less than 50 nM.
On to `CN1CCN(Cc2cc3c(nc2C=O)N(C(=O)Nc2cc(OC4CC4)c(C#N)cn2)CCC3)C(=O)C1` [Compound 1], for which the values for the IC50 in assay [2] and in assay [3] were less than 50 nM and more than 10000 nM, respectively.
For `COCCNc1cc(NC(=O)N2CCCc3cc(CN4CCCN(C)CC4=O)c(C=O)nc32)ncc1C#N` [Compound 9], the IC50 in assay [1] is less than 5 nM.
In turn, `COCC1(Oc2cc(NC(=O)N3CCCc4cc(CN5CCN(C)CC5=O)c(C=O)nc43)ncc2C#N)CC1` [Compound 7] came in with an IC50 in assay [2] of less than 500 nM.
As for `CO[C@H]1CC[C@@H](Nc2cc(NC(=O)N3CCCc4cc(CN5CCN(C)CC5=O)c(C=O)nc43)ncc2C#N)CC1` [Compound 3], the IC50 in assay [2] was less than 50 nM.
`COC1CCC(Oc2cc(NC(=O)N3CCCc4cc(CN5CCN(C)CC5=O)c(C=O)nc43)ncc2C#N)CC1` (stereo not drawn) [Compound 2]: the IC50 was less than 50 nM in assay [2] and more than 10000 nM in assay [3].
`COC1CC(Nc2cc(NC(=O)N3CCCc4cc(CN5CCN(C)CC5=O)c(C=O)nc43)ncc2C#N)C1` (stereo not drawn) [Compound 8]: in assay [1], the IC50 is less than 5 nM.
